Experimental findings from paper PMC3830699 (2013) are described below.

This assay relates to 144 ydaO (RNA, riboswitch) GGGAAAACAAAUCGCUUAAUCUGAAAUCAGAGCGGGGGACCCAAUAGAACGGCUUUUUGCCGUUGGGGUGAAUCCUUUUUAGGUAGGGCUAACUCUCAUAUGCCCGAAUCCGUCAGCUAACCUCGUAAGCGUUCGUGAGAGGAGAU
Put plainly: in-line probing. To be noted: low millimolar; tested to 3.16 mM; taken as the shorter construct of b32.

On to `Nc1ncnc2c1ncn2[C@@H]1O[C@H](COP(=O)(O)OP(=O)(O)OP(=O)(O)O)[C@@H](O)[C@H]1O`, for which the binding entry was “weak”.
